In patent US20150125509A1, “TREATMENT OF FISH POPULATIONS WITH LUFENURON” (priority 2012, published 2015):

Tested on: L. salmonis
Assay: Example 1: in-feed treatment in sea water, natural sea louse infestation, L. salmonis counts
Format: in vivo, Lepeophtheirus salmonis on Atlantic Salmon, S. salar
Conditions: for L. salmonis: all stages, Treated, average group counts / L. salmonis: pre- & adults, Efficacy / L. salmonis: pre- & adults, Treated, average group counts: sea water
Experimental: Three groups of 150 salmon (Atlantic Salmon, S. salar) of average weight 238 g were treated with medicated pellets containing lufenuron at a dose of respectively 3, 5 and 10 mg/kg/day during 7 consecutive days. The medicated pellets were prepared by dry coating commercially available fish feed pellets with a lufenuron-containing pre-mix to reach a content of 0.03, 0.05 and 0.1% (w/w) lufenuron in the fish feed and administered at a 1% feeding rate. The treatment was carried out in sea water.
Each group was maintained in a separate cage. A fourth cage containing 150 salmon of average weight 238 g was added to the study as a non-treated control group.
After treatment, the fish were exposed to natural sea louse infestation for a period of 9 months. During the study the water temperature varied between 4 and 12° C. Fish weight and sea louse numbers were assessed 1 day post-treatment, 1 week post-treatment and afterwards on a monthly basis until month 9. Counts were conducted on 10 fish at each sampling occasion. The numbers of chalimus, pre-adults and adult male, mobile and mature female L. salmonis were recorded for each fish. No distinction was made between chalimus stages I-IV or between pre-adult and adult male stages.
Efficacy was calculated using the formula:
% Efficacy=100−(100×mean of treatment group/mean of control).

[1] = 3 mg/kg/day 7 days in-feed, 1 month post-treatment
[2] = 3 mg/kg/day 7 days in-feed, 1 week post-treatment
[3] = 3 mg/kg/day 7 days in-feed, 2 month post-treatment
[4] = 3 mg/kg/day 7 days in-feed, 3 month post-treatment
[5] = 3 mg/kg/day 7 days in-feed, 4 month post-treatment
[6] = 3 mg/kg/day 7 days in-feed, 5 month post-treatment
[7] = 3 mg/kg/day 7 days in-feed, 6 month post-treatment
[8] = 3 mg/kg/day 7 days in-feed, 1 day post-treatment
[9] = 5 mg/kg/day 7 days in-feed, 1 month post-treatment
[10] = 5 mg/kg/day 7 days in-feed, 1 week post-treatment
[11] = 5 mg/kg/day 7 days in-feed, 2 month post-treatment
[12] = 5 mg/kg/day 7 days in-feed, 3 month post-treatment
[13] = 5 mg/kg/day 7 days in-feed, 4 month post-treatment
[14] = 5 mg/kg/day 7 days in-feed, 5 month post-treatment
[15] = 5 mg/kg/day 7 days in-feed, 6 month post-treatment
[16] = 5 mg/kg/day 7 days in-feed, 7 month post-treatment
[17] = 5 mg/kg/day 7 days in-feed, 8 month post-treatment
[18] = 5 mg/kg/day 7 days in-feed, 9 month post-treatment
[19] = 5 mg/kg/day 7 days in-feed, 1 day post-treatment
[20] = 10 mg/kg/day 7 days in-feed, 1 month post-treatment
[21] = 10 mg/kg/day 7 days in-feed, 1 week post-treatment
[22] = 10 mg/kg/day 7 days in-feed, 2 month post-treatment
[23] = 10 mg/kg/day 7 days in-feed, 3 month post-treatment
[24] = 10 mg/kg/day 7 days in-feed, 4 month post-treatment
[25] = 10 mg/kg/day 7 days in-feed, 5 month post-treatment
[26] = 10 mg/kg/day 7 days in-feed, 6 month post-treatment
[27] = 10 mg/kg/day 7 days in-feed, 7 month post-treatment
[28] = 10 mg/kg/day 7 days in-feed, 8 month post-treatment
[29] = 10 mg/kg/day 7 days in-feed, 9 month post-treatment
[30] = 10 mg/kg/day 7 days in-feed, 1 day post-treatment

O=C(NC(=O)c1c(F)cccc1F)Nc1cc(Cl)c(OC(F)(F)C(F)C(F)(F)F)cc1Cl (stereo not shown) [lufenuron, N-{[2,5-Dichlor-4-(1,1,2,3,3,3-hexafluorpropoxy)phenyl]carbamoyl}-2,6-difluorbenzamid]
L. salmonis: all stages, Treated, average group counts [1]: 0.00
L. salmonis: pre- & adults, Efficacy [1]: 100%
L. salmonis: pre- & adults, Treated, average group counts [1]: 0.00
L. salmonis: all stages, Treated, average group counts [2]: 0.10
L. salmonis: pre- & adults, Treated, average group counts [2]: 0.10
L. salmonis: all stages, Treated, average group counts [3]: 0.30
L. salmonis: pre- & adults, Efficacy [3]: 95%
L. salmonis: pre- & adults, Treated, average group counts [3]: 0.10
L. salmonis: all stages, Treated, average group counts [4]: 0.20
L. salmonis: pre- & adults, Efficacy [4]: 95%
L. salmonis: pre- & adults, Treated, average group counts [4]: 0.10
L. salmonis: all stages, Treated, average group counts [5]: 0.00
L. salmonis: pre- & adults, Efficacy [5]: 100%
L. salmonis: pre- & adults, Treated, average group counts [5]: 0.00
L. salmonis: all stages, Treated, average group counts [6]: 0.10
L. salmonis: pre- & adults, Efficacy [6]: 97%
L. salmonis: pre- & adults, Treated, average group counts [6]: 0.10
L. salmonis: all stages, Treated, average group counts [7]: 1.30
L. salmonis: pre- & adults, Efficacy [7]: 50%
L. salmonis: pre- & adults, Treated, average group counts [7]: 1.30
L. salmonis: all stages, Treated, average group counts [8]: 0.10
L. salmonis: pre- & adults, Treated, average group counts [8]: 0.10
L. salmonis: all stages, Treated, average group counts [9]: 1.90
L. salmonis: pre- & adults, Efficacy [9]: 90%
L. salmonis: pre- & adults, Treated, average group counts [9]: 0.10
L. salmonis: all stages, Treated, average group counts [10]: 0.00
L. salmonis: pre- & adults, Treated, average group counts [10]: 0.00
L. salmonis: all stages, Treated, average group counts [11]: 0.00
L. salmonis: pre- & adults, Efficacy [11]: 100%
L. salmonis: pre- & adults, Treated, average group counts [11]: 0.00
L. salmonis: all stages, Treated, average group counts [12]: 0.20
L. salmonis: pre- & adults, Efficacy [12]: 91%
L. salmonis: pre- & adults, Treated, average group counts [12]: 0.20
L. salmonis: all stages, Treated, average group counts [13]: 0.10
L. salmonis: pre- & adults, Efficacy [13]: 96%
L. salmonis: pre- & adults, Treated, average group counts [13]: 0.10
L. salmonis: all stages, Treated, average group counts [14]: 0.10
L. salmonis: pre- & adults, Efficacy [14]: 97%
L. salmonis: pre- & adults, Treated, average group counts [14]: 0.10
L. salmonis: all stages, Treated, average group counts [15]: 0.60
L. salmonis: pre- & adults, Efficacy [15]: 77%
L. salmonis: pre- & adults, Treated, average group counts [15]: 0.60
L. salmonis: all stages, Treated, average group counts [16]: 1.80
L. salmonis: pre- & adults, Efficacy [16]: 88%
L. salmonis: pre- & adults, Treated, average group counts [16]: 0.60
L. salmonis: all stages, Treated, average group counts [17]: 0.50
L. salmonis: pre- & adults, Efficacy [17]: 90%
L. salmonis: pre- & adults, Treated, average group counts [17]: 0.50
L. salmonis: all stages, Treated, average group counts [18]: 0.40
L. salmonis: pre- & adults, Efficacy [18]: 94%
L. salmonis: pre- & adults, Treated, average group counts [18]: 0.40
L. salmonis: all stages, Treated, average group counts [19]: 0.00
L. salmonis: pre- & adults, Treated, average group counts [19]: 0.00
L. salmonis: all stages, Treated, average group counts [20]: 3.10
L. salmonis: pre- & adults, Efficacy [20]: 100%
L. salmonis: pre- & adults, Treated, average group counts [20]: 0.00
L. salmonis: all stages, Treated, average group counts [21]: 0.20
L. salmonis: pre- & adults, Treated, average group counts [21]: 0.00
L. salmonis: all stages, Treated, average group counts [22]: 0.00
L. salmonis: pre- & adults, Efficacy [22]: 100%
L. salmonis: pre- & adults, Treated, average group counts [22]: 0.00
L. salmonis: all stages, Treated, average group counts [23]: 0.10
L. salmonis: pre- & adults, Efficacy [23]: 95%
L. salmonis: pre- & adults, Treated, average group counts [23]: 0.10
L. salmonis: all stages, Treated, average group counts [24]: 0.00
L. salmonis: pre- & adults, Efficacy [24]: 100%
L. salmonis: pre- & adults, Treated, average group counts [24]: 0.00
L. salmonis: all stages, Treated, average group counts [25]: 0.00
L. salmonis: pre- & adults, Efficacy [25]: 100%
L. salmonis: pre- & adults, Treated, average group counts [25]: 0.00
L. salmonis: all stages, Treated, average group counts [26]: 0.30
L. salmonis: pre- & adults, Efficacy [26]: 96%
L. salmonis: pre- & adults, Treated, average group counts [26]: 0.10
L. salmonis: all stages, Treated, average group counts [27]: 0.80
L. salmonis: pre- & adults, Efficacy [27]: 98%
L. salmonis: pre- & adults, Treated, average group counts [27]: 0.10
L. salmonis: all stages, Treated, average group counts [28]: 0.10
L. salmonis: pre- & adults, Efficacy [28]: 98%
L. salmonis: pre- & adults, Treated, average group counts [28]: 0.10
L. salmonis: all stages, Treated, average group counts [29]: 0.00
L. salmonis: pre- & adults, Efficacy [29]: 100%
L. salmonis: pre- & adults, Treated, average group counts [29]: 0.00
L. salmonis: all stages, Treated, average group counts [30]: 0.00
L. salmonis: pre- & adults, Treated, average group counts [30]: 0.00
protected the fish against sea louse infestation until (time post-treatment) (Example 1, 3 mg/kg treatment): 5 months
protected the fish against sea louse infestation until (time post treatment) (Example 1, 5 mg/kg treatment): 9 months
efficacy against sea lice at all time points (Example 1, 10 mg/kg group): more than 95%
protected the fish against sea louse infestation up to the end of the study (time post treatment) (Example 1, 10 mg/kg treatment): 9 months
